Test results published in patent US20240199649A1 (Biosplice Therapeutics, Inc., priority 2022, published 2024).

Biological target: recombinant DYRK1A kinase (Homo sapiens (Human), UniProt Q13627)
Experiment: DYRK1A kinase assay (Ser/Thr 18 peptide Z-lyte FRET assay)
Assay type: biochemical
Conditions: DYRK1A 0.25 μg/mL, ATP 15 μM, Ser/Thr peptide 18 4 μM; one hour at room temperature; 11-point dose-response, duplicate
Procedure, shortened: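 Z-lyte FRET assay on Ser/Thr 18 peptide, kinase activity read as coumarin/fluorescein emission ratio; compounds incubated 1 h at room temperature, then development reagent 1 h, in duplicate. Phosphorylated and unphosphorylated peptide served as controls; IC50 by non-linear regression of dose-response curves.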

Row | IC50 [nM] | SMILES
1 | 1.5 | CC(=O)N1CC[C@@H](Nc2nc(N)c3c(-c4ccc5nnn(CC(F)F)c5n4)ccn3n2)C(F)(F)C1 [Compound 853, (R)-1-(4-((4-Amino-5-(3-(2,2-difluoroethyl)-3H-[1,2,3]triazolo[4,5-b]pyridin-5-yl)pyrrolo[2,1-f][1,2,4]triazin-2-yl)amino)-3,3-difluoropiperidin-1-yl)ethan-1-one]
2 | 2.1 | Nc1nc(N[C@@H]2CCN(C3COC3)CC2(F)F)nn2ccc(-c3ccc4nnn(CC(F)F)c4n3)c12 [Compound 854, (R)—N^2-(3,3-Difluoro-1-(oxetan-3-yl)piperidin-4-yl)-5-(3-(2,2-difluoroethyl)-3H-[1,2,3]triazolo[4,5-b]pyridin-5-yl)pyrrolo[2,1-f][1,2,4]triazine-2,4-diamine]
3 | 1.5 | CN1CC[C@@H](Nc2nc(N)c3c(-c4ccc5ncn(CCF)c5n4)ccn3n2)C(F)(F)C1 [Compound 985, (R)—N^2-(3,3-Difluoro-1-methylpiperidin-4-yl)-5-(3-(2-fluoroethyl)-3H-imidazo[4,5-b]pyridin-5-yl)pyrrolo[2,1-f][1,2,4]triazine-2,4-diamine]
4 | 0.7 | C[C@]1(O)CC[C@H](Nc2nc(N)c3c(-c4ccc5ncn(CC(F)F)c5n4)ccn3n2)CC1 [Compound 986, (1r,4r)-4-((4-Amino-5-(3-(2,2-difluoroethyl)-3H-imidazo[4,5-b]pyridin-5-yl)pyrrolo[2,1-f][1,2,4]triazin-2-yl)amino)-1-methylcyclohexan-1-ol]
5 | 0.8 | CC(=O)N1C[C@H](F)[C@H](Nc2nc(N)c3c(-c4ccc5ncn(CC(F)F)c5n4)ccn3n2)C1 [Compound 987, 1-((3R,4S)-3-((4-Amino-5-(3-(2,2-difluoroethyl)-3H-imidazo[4,5-b]pyridin-5-yl)pyrrolo[2,1-f][1,2,4]triazin-2-yl)amino)-4-fluoropyrrolidin-1-yl)ethan-1-one]
6 | 0.6 | Nc1nc(N[C@@H]2CCN(C3COC3)CC2(F)F)nn2ccc(-c3ccc4ncn(CC(F)F)c4n3)c12 [Compound 993, (R)—N^2-(3,3-Difluoro-1-(oxetan-3-yl)piperidin-4-yl)-5-(3-(2,2-difluoroethyl)-3H-imidazo[4,5-b]pyridin-5-yl)pyrrolo[2,1-f][1,2,4]triazine-2,4-diamine]
7 | 0.8 | Cc1nc2ccc(-c3ccn4nc(N[C@H]5CC[C@](C)(O)CC5)nc(N)c34)nc2n1CCF [Compound 995, (1r,4r)-4-((4-Amino-5-(3-(2-fluoroethyl)-2-methyl-3H-imidazo[4,5-b]pyridin-5-yl)pyrrolo[2,1-f][1,2,4]triazin-2-yl)amino)-1-methylcyclohexan-1-ol]
8 | 1.8 | CC(=O)N1CC[C@H](Nc2nc(N)c3c(-c4ccc5nc(C)n(CCF)c5n4)ccn3n2)[C@H](F)C1 [Compound 996, 1-((3R,4S)-4-((4-Amino-5-(3-(2-fluoroethyl)-2-methyl-3H-imidazo[4,5-b]pyridin-5-yl)pyrrolo[2,1-f][1,2,4]triazin-2-yl)amino)-3-fluoropiperidin-1-yl)ethan-1-one]
9 | 9.2 | CC(=O)N1CC[C@@H](Nc2nc(N)c3c(-c4ccc5nc(C)n(CCF)c5n4)ccn3n2)C(F)(F)C1 [Compound 998, (R)-1-(4-((4-Amino-5-(3-(2-fluoroethyl)-2-methyl-3H-imidazo[4,5-b]pyridin-5-yl)pyrrolo[2,1-f][1,2,4]triazin-2-yl)amino)-3,3-difluoropiperidin-1-yl)ethan-1-one]

Continued, compound first:

Row | SMILES | IC50 [nM]
10 | Nc1nc(N[C@@H]2CN(C3COC3)C[C@@H]2F)nn2ccc(-c3ccc4ncn(CC(F)F)c4n3)c12 [Compound 988, 5-(3-(2,2-Difluoroethyl)-3H-imidazo[4,5-b]pyridin-5-yl)-N^2-((3R,4S)-4-fluoro-1-(oxetan-3-yl)pyrrolidin-3-yl)pyrrolo[2,1-f][1,2,4]triazine-2,4-diamine] | 0.6
11 | Nc1nc(N[C@H]2CCN(C3COC3)C[C@H]2F)nn2ccc(-c3ccc4ncn(CC(F)F)c4n3)c12 [Compound 990, 5-(3-(2,2-Difluoroethyl)-3H-imidazo[4,5-b]pyridin-5-yl)-N^2-((3R,4S)-3-fluoro-1-(oxetan-3-yl)piperidin-4-yl)pyrrolo[2,1-f][1,2,4]triazine-2,4-diamine] | 0.6
12 | CN1CC[C@@H](Nc2nc(N)c3c(-c4ccc5ncn(CC(F)F)c5n4)ccn3n2)C(F)(F)C1 [Compound 991, (R)—N^2-(3,3-Difluoro-1-methylpiperidin-4-yl)-5-(3-(2,2-difluoroethyl)-3H-imidazo[4,5-b]pyridin-5-yl)pyrrolo[2,1-f][1,2,4]triazine-2,4-diamine] | 0.4
13 | CC(=O)N1CC[C@@H](Nc2nc(N)c3c(-c4ccc5ncn(CC(F)F)c5n4)ccn3n2)C(F)(F)C1 [Compound 992, (R)-1-(4-((4-Amino-5-(3-(2,2-difluoroethyl)-3H-imidazo[4,5-b]pyridin-5-yl)pyrrolo[2,1-f][1,2,4]triazin-2-yl)amino)-3,3-difluoropiperidin-1-yl)ethan-1-one] | 0.7
14 | CN1CC[C@@H](Nc2nc(N)c3c(-c4ccc5ncn(CC(F)(F)F)c5n4)ccn3n2)C(F)(F)C1 [Compound 994, (R)—N^2-(3,3-Difluoro-1-methylpiperidin-4-yl)-5-(3-(2,2,2-trifluoroethyl)-3H-imidazo[4,5-b]pyridin-5-yl)pyrrolo[2,1-f][1,2,4]triazine-2,4-diamine] | 1.2
15 | Cc1nc2ccc(-c3ccn4nc(N[C@H]5CCN(C6COC6)C[C@H]5F)nc(N)c34)nc2n1CCF [Compound 997, N^2-((3R,4S)-3-Fluoro-1-(oxetan-3-yl)piperidin-4-yl)-5-(3-(2-fluoroethyl)-2-methyl-3H-imidazo[4,5-b]pyridn-5-yl)pyrrolo[2,1-f][1,2,4]triazine-2,4-diamine] | 1.7
16 | Cc1nc2ccc(-c3ccn4nc(N[C@@H]5CCN(C6COC6)CC5(F)F)nc(N)c34)nc2n1CCF [Compound 999, (R)—N^2-(3,3-Difluoro-1-(oxetan-3-yl)piperidin-4-yl)-5-(3-(2-fluoroethyl)-2-methyl-3H-imidazo[4,5-b]pyridin-5-yl)pyrrolo[2,1-f][1,2,4]triazine-2,4-diamine] | 1.8
17 | Nc1nc(N[C@H]2CC[C@@H](OC(F)F)CC2)nn2ccc(-c3ccc4nnn(CC(F)F)c4n3)c12 [Compound 1000, 5-(3-(2,2-Difluoroethyl)-3H-[1,2,3]triazolo[4,5-b]pyridin-5-yl)-N^2-(cis-4-(difluoromethoxy)cyclohexyl)pyrrolo[2,1-f][1,2,4]triazine-2,4-diamine] | 5.1
18 | CNc1nc(NC2CCC(F)(F)CC2)nn2ccc(-c3ccc4ncn(CCF)c4n3)c12 [Compound 1001, N^2-(4,4-Difluorocyclohexyl)-5-(3-(2-fluoroethyl)-3H-imidazo[4,5-b]pyridin-5-yl)-N^4-methylpyrrolo[2,1-f][1,2,4]triazine-2,4-diamine] | 2.2
19 | CNc1nc(N[C@H]2CCN(C(C)=O)C[C@H]2F)nn2ccc(-c3ccc4ncn(CCF)c4n3)c12 [Compound 1002, 1-((3R,4S)-3-Fluoro-4-((5-(3-(2-fluoroethyl)-3H-imidazo[4,5-b]pyridin-5-yl)-4-(methylamino)pyrrolo[2,1-f][1,2,4]triazin-2-yl)amino)piperidin-1-yl)ethan-1-one] | 1.1
